The CheMixHub viscosity set
Values joined by “and” are separate entries in the source; they are usually repeats but may differ in a detail not shown here. Equal entries are not always repeated. ± gives the uncertainty stated by the source.

| Compound | viscosity (293.15 K, 101.33 kPa) | viscosity (298.15 K, 100 kPa) | viscosity (298.15 K, 101.33 kPa) | viscosity (303.15 K, 101 kPa) | viscosity (303.15 K, 101.33 kPa) | viscosity (308.15 K, 101 kPa) | viscosity (313.15 K, 100 kPa) | viscosity (318.15 K, 101.33 kPa) | viscosity (298.15 K, 101 kPa) | viscosity (313.15 K, 101 kPa) | further results |
| --- | --- | --- | --- | --- | --- | --- | --- | --- | --- | --- | --- |
| CCCCCCCCCCCCCC | 2.282 ± 0.23 mPa·s and 2.292 ± 0.031 mPa·s and 2.292 ± 0.027 mPa·s | 2.15 ± 0.069 mPa·s | 2.088 ± 0.016 mPa·s and 2.091 ± 0.016 mPa·s and 2.025 ± 0.047 mPa·s | 1.895 ± 0.11 mPa·s and 1.895 ± 0.17 mPa·s | 1.864 ± 0.19 mPa·s | 1.715 ± 0.1 mPa·s and 1.715 ± 0.15 mPa·s | 1.612 ± 0.053 mPa·s | 1.356 ± 0.032 mPa·s | – | – | viscosity (298 K, 101.33 kPa): 2.074 ± 0.026 mPa·s; viscosity (298.15 K, 103 kPa): 2.048 ± 0.043 mPa·s; viscosity (308.15 K, 103 kPa): 1.685 ± 0.042 mPa·s; viscosity (313.15 K, 101.33 kPa): 1.548 ± 0.16 mPa·s; viscosity (318.15 K, 103 kPa): 1.413 ± 0.041 mPa·s; viscosity (323.15 K, 101.33 kPa): 1.314 ± 0.13 mPa·s |
| COCC(C)O (stereo unspecified) | – | – | 1.671 ± 0.015 mPa·s and 1.723 ± 0.041 mPa·s and 1.694 ± 0.026 mPa·s | 1.3 ± 0.13 mPa·s | – | 1.22 ± 0.12 mPa·s | – | 1.09 ± 0.027 mPa·s and 1.078 ± 0.017 mPa·s | 1.55 ± 0.15 mPa·s | 1.11 ± 0.11 mPa·s | viscosity (308.15 K, 101.33 kPa): 1.374 ± 0.033 mPa·s and 1.329 ± 0.021 mPa·s; viscosity (318.15 K, 101 kPa): 1.04 ± 0.1 mPa·s |
| O=[N+]([O-])c1ccccc1 | 2.024 ± 0.047 mPa·s and 2.079 ± 0.11 mPa·s and 2.079 ± 0.21 mPa·s | 1.909 ± 0.04 mPa·s | – | – | 1.665 ± 0.078 mPa·s | 1.457 ± 0.011 mPa·s and 1.242 ± 0.0097 mPa·s and 1.601 ± 0.019 mPa·s | 1.501 ± 0.035 mPa·s | – | – | 1.402 ± 0.036 mPa·s | viscosity (293.15 K, 100 kPa): 2.087 ± 0.043 mPa·s; viscosity (293.15 K, 101 kPa): 1.931 ± 0.019 mPa·s; viscosity (298.15 K, 101.3 kPa): 1.773 ± 0.042 mPa·s; viscosity (303.15 K, 100 kPa): 1.755 ± 0.038 mPa·s; viscosity (313.15 K, 101.3 kPa): 1.373 ± 0.033 mPa·s; viscosity (318.15 K, 100 kPa): 1.397 ± 0.034 mPa·s; viscosity (323.15 K, 100 kPa): 1.303 ± 0.032 mPa·s; viscosity (323.15 K, 101 kPa): 1.192 ± 0.032 mPa·s |
| CC(=O)OC1CCCCC1 | – | – | – | – | – | – | – | – | – | – | viscosity (300 K, 101 kPa): 1.95 ± 0.03 mPa·s; viscosity (310 K, 101 kPa): 1.61 ± 0.03 mPa·s; viscosity (320 K, 101 kPa): 1.36 ± 0.02 mPa·s |
| CCI | – | – | – | – | – | – | – | – | 0.577 ± 0.008 mPa·s | – | – |
| C=COCCCC | – | – | – | – | – | 0.374 ± 0.017 mPa·s | – | – | – | – | – |
